Key:
[1] = tested on: Histone deacetylase (HDAC); experiment: HDAC inhibitory activity: Kac-H3 Western Blot in VCaP cells; assay type: cell-based; details: 10 uM drug, 24 h, FIG. 5
Description: (§1) The VCap cells are cultured in the 6-well plate. After treating the VCap cells with the drugs for 24 hours, acetylation levels of the tubulin in the cytoplasm and the H3 protein in the nucleus are examined by the western blot. An experiment process is as follows:
The VCaP cells are spread in the 6-well plate. 5×10^5 cells are inoculated per well, and incubated overnight to make the cells stick to a wall. Then 10 uM of the drug is added to each well. The cells are collected after being incubated for 24 h. The EpiQuik Total Histone Extraction kit (Epigentek, USA) is used to extract the histones, and the Western Blot method is used to detect expression levels of Kac-H3 (localized cell nucleus) in the cells after adding the different drugs.

[2] = tested on: AR-positive VCaP cells; experiment: Selective effects of the drug to cells (MTS; VCaP versus 293T and DU145); assay type: cell-based; details: 4 days treatment, FIG. 10
Description: (§2) 293T cells are AR-negative human embryonic kidney cells, DU145 cells are AR-negative prostate cancer cells, and VCaP cells are AR-positive prostate cancer cells. These three types of the cells are cultured in the 96-well plates and treated with the drugs (in the concentration gradient) respectively for 4 days. Then the inhibition of the drugs on cell proliferation are measure by MTS. Detailed process is as follows:
(§3) The VCaP cells are cultured with 5% CSS and 1640 medium without phenol red, and inoculated in the 96-well plates, and 1×10^4 cells are added to each well. The 293T cells and the DU145 cells are cultured with 10% FBS and 1640 medium, and inoculated in the 96-well plates, and 2×10^3 cells are added to each well. The cells are incubated overnight to make the cells stick to a wall. Then the different concentrations of the drugs are added on the second day. After treatment with the drugs for 4 days, cell viability is measured by the MTS kit (Promega, USA). To each well, 10% of an MTS reagent is added, and incubation continued for 2 hours. The absorbance value at […] is then measured by the multi-functional microplate reader. The Graphpad Prism software is used to draw a curve by using the drug concentration as an abscissa and using the absorbance value of the drug treatment/the absorbance value of the blank treatment cell as an ordinate.

[3] = tested on: AR-negative cells (293T and DU145); experiment: Selective effects of the drug to cells (MTS), AR-negative cells; assay type: cell-based, human; details: 293T and DU145, 4 days treatment, FIG. 10
Description: as §2, §3

[4] = molecular target: T1, AR-LBD (GST) (Rattus norvegicus, UniProt P15207); experiment: PolarScreen Androgen Receptor (AR) Competitor Assay, binding experiment of the antagonist and AR; details: fluorescence polarization, incubated 6 hours, FIG. 1; read-out: IC50 of the drug and AR-LBD binding
T1 construct: purchased Life technologies company, USA
T1 sequence (P15207 651-882 limits assumed): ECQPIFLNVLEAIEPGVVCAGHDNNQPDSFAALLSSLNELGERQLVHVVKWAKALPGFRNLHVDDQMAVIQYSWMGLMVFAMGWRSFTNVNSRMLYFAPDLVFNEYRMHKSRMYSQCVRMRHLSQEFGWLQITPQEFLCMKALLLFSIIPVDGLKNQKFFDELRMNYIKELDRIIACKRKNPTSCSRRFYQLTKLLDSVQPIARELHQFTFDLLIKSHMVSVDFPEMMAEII
Description: PolarScreen™ Androgen Receptor (AR) Competitor Assay, Green kit (Life technologies company, USA) is used to test the affinity of the antagonist to AR-LBD (GST). The mechanism of the experiment is that the AR-LBD is combined with a small molecule fluormone tracer (Fluormone Tracer), and an antagonist added can competitively bind with AR-LBD so as to replace the fluormone tracer, and the replaced fluormone tracer […], and the value of the fluorescence polarization is inversely proportional to the number of the replaced tracers.
A specific process is as follows: the drug is dissolved into 500 uM by using DMSO, and then diluted to 244 nM by double dilution concentration gradients in a 96-well plate. A 10 uL of a reaction system AR-LBD+Tracer is configured in a 384-well plate and 10 uL of the drug solution is added. The positive control is 10 uL of AR-LBD+Tracer with 10 uL of DHT added. The 384-well plate is wrapped by tin foil and incubated for 6 hours in the dark. The fluorescence polarization value is read on a multi-function microplate reader. Graphpad Prism software is used to draw a drug concentration as an abscissa, and the fluorescence polarization value is used as an ordinate for drawing a curve. […] Herein, the DHT, MDV3100, and ARN509 are positive controls.

[5] = tested on: Histone deacetylase (HDAC); experiment: HDAC inhibitory activity: Kac-tubulin Western Blot in VCaP cells; assay type: cell-based; details: 10 uM drug, 24 h, FIG. 4
Description: as §1
The VCaP cells are spread in the 6-well plate. 5×10^5 cells are inoculated per well, and incubated overnight to make the cells stick to a wall. On the second day, 10 uM of the drug is added per well. After being incubated for 24 h, the cells are collected, and lysed to extract the cell total protein. The Western Blot method is used to detect the expression levels of Kac-tubilin (localized cytoplasm) in the cells after treating with the different drugs.

**Q.** What does the source list for `N#Cc1ccc(N2C(=O)C3(CCC3)N(c3ccc(C(=O)NO)c(F)c3)C2=S)cc1C(F)(F)F` [Zeta 55, 4-(7-(4-cyano-3-(trifluoromethyl)phenyl)-8-oxo-6-thio-5,7-diazaspiro[3.4]octane-5-yl)-2-fluoro-N-hydroxybenzamide]?
**A.** H3 acetylation in the nucleus (HDAC inhibitory activity) [1]: superior; proliferation inhibition effect on AR-positive VCaP cells relative to AR-negative cells (293T and DU145) [2]: more than 20 times; selectivity of proliferation inhibition [2]: selective proliferation inhibition on the AR-positive VCaP cells; cytotoxicity toward AR-negative cells [3]: may have low cytotoxicity toward AR-negative cells; IC50 [4]: 29.8 µM; acetylation of the tubulin in the cytoplasm (HDAC inhibitory activity) [5]: superior

— patent publication US12122760B2, “Compound, composition, and use thereof in preparation of drug” (CHANGSHA ZEDA MEDICAL TECH. CO., LTD, priority 2019, dated 2024)
